pIC50: −log10 of the molar value. A value given as a limit tells only on which side of the number the result lay.

The values below come from patent publication US20230143751A1, “Aromatic Compound And Use Thereof In Preparing Antineoplastic Drugs” (Shanghai Zheye Biotechnology Co. Ltd., priority 2020, published 2023).

The subject of data set [1] is NCI-H358-derived xenograft tumor. In words: Pharmacodynamics study of NCI-H358-derived xenograft tumor model, combination with Afatinib or Trametinib (test 10). The class given is in vivo, nude mice. Particulars: i.g. QD×21 days, 3-2 10 mg/kg, Afatinib 10 mg/kg, Trametinib 0.1 mg/kg. Here is the method:
Animal species and number: Balb/c Nude; 6 animals per group. Test samples: […] Test groups: blank solvent control group; […] NCI-H358 tumor cells in logarithmic growth phase were cultured in vitro and collected, and inoculated subcutaneously into the right back of nude mice at a quantity of 5×10^6 cells/each. When the tumor volume reached 150-300 mm^3, the tumor-bearing nude mice were randomly grouped. Subsequently, the animals in each group were administered, and the day of the first administration was defined as day 1 of the test. Administration frequency: once a day. General state observation: observation time and frequency: once a day; observation indexes or contents: including but not limited to administration location, appearance and signs, general behavioral activities, mental status, death and other abnormal performance of the animals. The animals were euthanized at the end of the test. Tumor volume calculation: V=½×long diameter×short diameter^2 (mm^3).

Data set [2] deals with NCI-H358. In words: Cell proliferation inhibitory activity on NCI-H358, 3D model test (agarose colony formation). Particulars: for pIC50: Homo sapiens, NCI-H358, 3D agarose colony formation, NBT staining. It is filed as cell-based. Here is the method: 100 μl of agarose gel with a high concentration was spread in a 96-well plate as the bottom agarose gel layer. Agarose with a low concentration and growth medium containing cells were mixed and then spread on the bottom agar layer, cooled and solidified, then incubated overnight at 37° C. Mother solutions were prepared from the test compounds by using DMSO, and then subjected to gradient elution with RPMI 1640 growth medium. The solutions of test compounds with different concentrations after gradient elution were added to the 96-well plate comprising an upper layer of agar gel-cells. Solvent control well was set up and the plate was incubated in a CO2 incubator. The drug-containing medium was changed during the incubation period and the cell growth situation was observed. After the incubation, the cells were stained with NBT and the number of cell colony formation was counted, and the IC50 values of the compounds inhibiting cell proliferation were derived.

In data set [3] the test system is MIA PaCa-2 cells. In words: Cell proliferation activity of MIA PaCa-2 by CellTiter-Glo reagent. It is filed as cell-based. To be noted: 72 h, CellTiter-Glo; for pIC50: Homo sapiens, MIA PaCa-2, read-out: IC50 value of cell proliferation inhibitory activity of the compound on MIA PaCa-2. Here is the method:
MIA PaCa-2 cells in exponential growth phase were digested with trypsin-EDTA, plated in a 96-well plate with 2000-3000 cells per well, and incubated overnight at 37° C. with 5% CO2. Mother solutions were prepared from the test compounds by using DMSO, subjected to gradient elution with DMEM growth medium, and then added into the 96-well plate and incubated in an incubator for 72 h at 37° C. with 5% CO2. After the incubation, CellTiter-Glo test reagent with an equal volume was added into each well and the obtained 96-well plate was incubated after shaking. The chemiluminescence values were determined by microplate reader, and the IC50 values of the test compounds inhibiting the proliferation of MIA PaCa-2 cells were fitted and calculated by GraphPad Prism software.
The test method of inhibitory activity was the same as that in Test 2 in “Biological Tests” part.

Data set [4] concerns the target KRAS G12C (Homo sapiens, UniProt P01116, G12C). In words: Effect on KRAS(G12C) enzyme activity (KRAS G12C/c-Raf binding, Eu/d2 energy transfer). It is filed as biochemical. Here is the method: Compound stock solution was taken, and the test compound was subjected to gradient elution in DMSO. The above diluted compound was added into a quantitative volume of enzyme reaction buffer and subjected to oscillation on a microplate oscillator for 20 min.
4 μL of enzyme was transferred to a 384-well reaction plate. 1 μL of the test compound was added into the 384-well reaction plate. The plate was sealed with sealing film, and the reaction plate with the compound was centrifuged at 1000 rpm for 1 min and incubated for 60 min. 5 μL of a mixture of substrate and antibody was transferred to the 384-well reaction plate. The plate was sealed with sealing film, then centrifuged at 1000 rpm for 1 min and incubated for 120 min at room temperature.
Ratiopositive control: average value of the ratios of 10 positive control wells; Rationegative control: average value of the ratios of 10 negative control wells.

Data set [5] in a line: Preliminary safety test, 5-day escalating oral dosing in Balb/c mice. Particulars: for water and food intake, activity and body weight during the administration period (in words): oral gavage once a day for 5 days, 200 to 800 mg/kg. The class given is in vivo. Here is the method:
Test samples: Compound 3-2, Compound 3-6, Compound 3-12M, Compound 3-20, and Compound 4-8.
Animal species and number: Balb/c; 6 animals per group (half male and half female).
Administration mode: oral administration by gavage.
Animal grouping and administration dose: vehicle blank group, Compound 3-2 group (200 mg/kg, 400 mg/kg, 800 mg/kg), Compound 3-6 group (200 mg/kg, 400 mg/kg, 800 mg/kg), Compound 3-12M group (200 mg/kg, 400 mg/kg, 800 mg/kg), Compound 3-20 group (200 mg/kg, 400 mg/kg, 800 mg/kg), Compound 4-8 group (200 mg/kg, 400 mg/kg, 800 mg/kg).
Administration frequency: once a day for 5 days.
General clinical observations were performed 2 times a day (once in the morning and once in the afternoon) during the test period. Death, morbidity, respiration, secretions, feces, and diet, drinking situation and so on were observed, and the changes in body weight of the mice during the administration period were recorded. The animals in each group were euthanized after the administration, and all animals were dissected and subjected to gross observation.

Data set [6] deals with NCI-H358 cells. In words: Cell proliferation activity of NCI-H358 by CellTiter-Glo reagent. It is filed as cell-based. Here is the method: NCI-H358 cells in exponential growth phase were digested with trypsin-EDTA, plated in a 96-well plate with 2000-3000 cells per well, and incubated overnight at 37° C. with 5% CO2. […] After the incubation, CellTiter-Glo test reagent with an equal volume was added into each well and the obtained 96-well plate was incubated after shaking. The chemiluminescence values were determined by microplate reader, and the IC50 values of the test compounds inhibiting the proliferation of NCI-H358 cells were fitted and calculated by GraphPad Prism software.
The test method of inhibitory activity was the same as that in Test 3 in “Biological Tests” part.

Data set [7] deals with MIA PaCa-2-derived xenograft tumor. In words: Pharmacodynamics test of MIA PaCa-2-derived xenograft tumor model in nude mice (test 6). The class given is in vivo. Here is the method:
Animal species and number: Balb/c Nude; 6 animals per group.
Test samples: Compound 3-2, Compound 3-6, Compound 3-20, Compound 3-12M.
Test groups: blank solvent control group; Compound 3-2 (10 mg/kg, QD×15 days), Compound 3-6 (10 mg/kg, QD×15 days), Compound 3-20 (10 mg/kg, QD×15 days), Compound 3-12M (10 mg/kg, QD×15 days).
Animal model establishment: MIA paca-2 tumor cells in logarithmic growth phase were cultured in vitro and collected, and inoculated subcutaneously into the right back of nude mice at a quantity of 5×10^6 cells/each. When the tumor volume reached 150-300 mm^3, the tumor-bearing nude mice were randomly grouped. Subsequently, the animals in each group were administered, and the day of the first administration was defined as day 1 of the test.
Administration route and frequency: oral administration by gavage; once a day.
General state observation: observation time and frequency: once a day; observation indexes or contents: including but not limited to administration location, appearance and signs, general behavioral activities, mental status, death and other abnormal performance of the animals. The animals were euthanized at the end of the test.
Tumor volume calculation: V=½×long diameter×short diameter^2 (mm^3). Tumor growth inhibition rate TGI (%) is used to evaluate the tumor inhibition efficacy of the compounds. TGI (%)=[1−(mean tumor volume in treatment group at the end of administration−mean tumor volume in treatment group at the beginning of administration)/(mean tumor volume in control group at the end of administration−mean tumor volume in control group at the beginning of administration)]×100%.

Chain of KRAS G12C (P01116 1-188 isoform P01116-2 G12C): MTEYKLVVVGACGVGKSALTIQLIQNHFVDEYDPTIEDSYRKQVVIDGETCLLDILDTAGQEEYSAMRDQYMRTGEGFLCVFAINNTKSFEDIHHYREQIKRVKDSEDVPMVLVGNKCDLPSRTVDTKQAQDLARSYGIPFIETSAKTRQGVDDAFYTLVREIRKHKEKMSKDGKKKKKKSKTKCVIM

Regarding `CN(C)C/C=C/C(=O)Nc1cc2c(Nc3ccc(F)c(Cl)c3)ncnc2cc1O[C@H]1CCOC1` [Afatinib], the “Tumor inhibition rate (%)” value in data set [1] is “+ (“+” represents a tumor inhibition rate of <130%)”.
With `[2H]C([2H])=Cc1cccc(F)c1-c1nc2c(cc1Cl)c(N1CCN(C(=O)C=C)C[C@@H]1C)nc(=O)n2-c1c(C)ccnc1C(C)C` [Compound 3-20], the “anti-cell proliferation activity against KRAS G12C mutant type cells NCI-H358 (in words)” value in data set [2] (3D model test) is “significant anti-cell proliferation activity”. The pIC50 in data set [2] is > 7.30; in data set [3] it was > 7.30; in data set [4] (60 min incubation with enzyme, read-out: IC50 value of the compound on KRAS G12C enzyme activity), 7.72; in data set [6] (Homo sapiens, NCI-H358, test 8, method of test 3, read-out: IC50 of proliferation inhibitory activity of the compound on NCI-H358 cell line), 8.00. Moreover, the “anti-cell proliferation activity against KRAS G12C mutant type cells MIA PaCa-2 (in words)” value in data set [3] is reported as “significant anti-cell proliferation activity”. Further, the “inhibitory activity on KRAS G12C enzyme compared with AMG510 (in words)” value in data set [4] is “remarkable better”. Further, the “water and food intake, activity and body weight during the administration period (in words)” value in data set [5] is listed as “no significant abnormality was showed”. Moreover, the “cell proliferation inhibitory activity of NCI-H358 compared with AMG510 (in words)” value in data set [6] (test 8) is on record as “better than AMG510”. Also, in data set [7] (10 mg/kg QD×15 days), the “inhibition effect on the growth of subcutaneously transplanted tumors derived from pancreatic cancer MIA paca-2 cells in nude mice (in words)” value is on record as “significant inhibition effect”. For the same compound, the “Tumor inhibition rate (%)” value in data set [7] (MIA PaCa-2 xenograft, nude mice, 10 mg/kg oral gavage QD×15 days) is “+++ (“+++” represents a tumor inhibition rate of >80%)”.
With `[2H]C([2H])=Cc1ccccc1-c1nc2c(cc1Cl)c(N1CCN(C(=O)C=C)C[C@@H]1C)nc(=O)n2-c1c(C)ccnc1C(C)C` [Compound 3-24], the pIC50 in data set [2] and in data set [3] was > 7.30 throughout.
For the compound `[2H]C([2H])=Cc1cccc(F)c1-c1nc2c(cc1F)c(N1CCN(C(=O)C=C)C[C@@H]1C)nc(=O)n2-c1c(C([2H])([2H])[2H])ccnc1C(C)C` [Compound 4-3], the pIC50 in data set [2] and in data set [3] was > 7.30 in each case.
On to `[2H]C([2H])=Cc1ccccc1-c1nc2c(cc1Cl)c(N1CCN(C(=O)C=C)C[C@@H]1C)nc(=O)n2-c1c(C([2H])([2H])[2H])ccnc1C(C)C` [Compound 4-8], for which the pIC50 in data set [2] and in data set [3] was > 7.30 throughout. For the same compound, in data set [5] (both sexes, mouse, in vivo, oral gavage, 5 days, initially suggested, read-out: maximum tolerated dose), the MTD at 5 days was > 800 mg/kg. For the same compound, in data set [5], the “water and food intake, activity and body weight during the administration period (in words)” value is “no significant abnormality was showed”.
Consider `[2H]C([2H])([2H])c1ccnc(C(C)C)c1-n1c(=O)nc(N2CCN(C(=O)C=C)C[C@@H]2C)c2cc(F)c(-c3ccccc3C=C)nc21` [Compound 4-23], for which the pIC50 in data set [2] and in data set [3] was > 7.30 in each case.
With `[2H]C([2H])=Cc1cccc(F)c1-c1nc2c(cc1F)c(N1CCN(C(=O)C=C)C[C@@H]1C)nc(=O)n2-c1c(C(C)C)ccnc1C(C)C` [Compound 5-3], the pIC50 in data set [2] and in data set [3] was > 7.30 throughout.
Regarding `[2H]C([2H])=Cc1ccccc1-c1nc2c(cc1Cl)c(N1CCN(C(=O)C=C)C[C@@H]1C)nc(=O)n2-c1c(C(C)C)ccnc1C(C)C` [Compound 5-8], the pIC50 in data set [2] and in data set [3] was > 7.30 in each case.
With `C=CC(=O)N1CCN(c2nc(=O)n(-c3c(C(C)C)ccnc3C(C)C)c3nc(-c4ccccc4C=C)c(Cl)cc23)[C@@H](C)C1` [Compound 5-24], the pIC50 in data set [2] and in data set [3] was > 7.30 in each case.
As for `CC(=O)Nc1cccc(-n2c(=O)n(C3CC3)c(=O)c3c(Nc4ccc(I)cc4F)n(C)c(=O)c(C)c32)c1` [Trametinib], the “Tumor inhibition rate (%)” value in data set [1] is reported as “+ (“+” represents a tumor inhibition rate of <130%)”.
